Source: US20100063085A1, “METHOD OF TREATING LEARNING IMPAIRMENT IN DOWN'S SYNDROME SUBJECTS” (University Court of The University of Dundee, priority 2008, published 2010)
Where two headings read alike, the source gives them in different places.

Columns and labels:
Type in all cases: biochemical
JNK/SAPK1c = JNK/SAPK1c (Homo sapiens, UniProt P45983); test: JNK/SAPK1c 33P kinase assay; conditions: read-out: JNK/SAPK1c activity as percentage of control without inhibitor
Method: (§1) All assays (25.5 μl) were carried out at room temperature (21° C.) and were linear with respect to time and enzyme concentrations under the conditions used. Assays were performed for 30 minutes except assays for LCK and PKB which were performed for 15 minutes using Multidrop Micro reagent dispensers (Thermo Electron Corporation, Waltham, Mass. 02454, USA) in a 96-well format. The concentration of […] [γ-^33P] ATP (800 cpm/pmol) in the assays was one of three concentrations (5, 20 or 50 μM) in order to be at or below Km for ATP for the enzyme. Assays were initiated with MgATP and stopped by addition of 5 μl of 0.5M orthophosphoric acid. Assays were then harvested onto P81 filterplates using a unifilter harvester (PerkinElmer, Boston, Mass. 02118, USA), with a wash buffer of 50 mM orthophosphoric acid. Filterplates were then air dried overnight. 10 μl of Microscint O was added per well prior to counting for radioactivity.
(§2) MKK1, JNK/SAPK1c, SAPK2a/p38, SAPK2b/p38β2, SAPK3/p38γ, SAPK4/p38δ, MAPK2/ERK2, MAPKAP-K1β, MAPKAP-K2, MSK1, PRAK, PKA, PKCα, PDK1, SGK, p70S6K, GSK3β, ROCK-II, PRK2, AMPK, CHK1, CHK2, CK2, PHK, LCK, were assayed according to Davies et al., (Davies, S. P., Reddy, H., Caivano, M. and Cohen, P. Biochem. J. 351, 95-105, 2000.
(§3) CSK and CDK2/cyclinA, were assayed according to Bain et al. (Bain J, McLauchlan H, Elliott M, Cohen P. Biochem J. 371, 199-204, 2003., except that ATP concentrations were either 5, 20 or 50 micromolar so that they were at or below the Km for ATP. The ATP concentrations used were as follows, 5 μM for assays of MKK1, SAPK3, SAPK4, GSK3β, PRK2 CK2 20 μm for assays of JNK, SAPK2β, MAPKAP-K2, MSK1, PRAK, PKA, […], PDK1, SGK, p70S6K, ROCK-II, CHK1, CHK2, CSK, CDK2, and 50 μM for assays of SAPK2a, MAPK2/ERK2, AMPK, LCK, PHK and MAPKAP-K1β.

MAPK2/ERK2 = MAPK2/ERK2 (Homo sapiens, UniProt P28482); test: MAPK2/ERK2 33P kinase assay; conditions: read-out: MAPK2/ERK2 activity as percentage of control without inhibitor
Chain of MAPK2/ERK2 (P28482 whole entry): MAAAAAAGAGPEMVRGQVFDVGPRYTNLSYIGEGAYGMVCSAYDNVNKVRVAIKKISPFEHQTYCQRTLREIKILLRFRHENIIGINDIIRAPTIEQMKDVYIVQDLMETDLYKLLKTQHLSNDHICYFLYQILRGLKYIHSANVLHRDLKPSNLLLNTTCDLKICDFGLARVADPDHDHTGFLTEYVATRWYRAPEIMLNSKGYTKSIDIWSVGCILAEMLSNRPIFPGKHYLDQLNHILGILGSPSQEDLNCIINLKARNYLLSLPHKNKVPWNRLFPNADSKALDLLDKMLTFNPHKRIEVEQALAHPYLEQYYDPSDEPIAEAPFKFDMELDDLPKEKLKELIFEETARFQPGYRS
Method: as §1, §2, §3

PRK2 = PRK2 (Homo sapiens, UniProt Q16513); test: PRK2 33P kinase assay; conditions: read-out: PRK2 activity as percentage of control without inhibitor
Chain of PRK2 (Q16513 whole entry, species assumed): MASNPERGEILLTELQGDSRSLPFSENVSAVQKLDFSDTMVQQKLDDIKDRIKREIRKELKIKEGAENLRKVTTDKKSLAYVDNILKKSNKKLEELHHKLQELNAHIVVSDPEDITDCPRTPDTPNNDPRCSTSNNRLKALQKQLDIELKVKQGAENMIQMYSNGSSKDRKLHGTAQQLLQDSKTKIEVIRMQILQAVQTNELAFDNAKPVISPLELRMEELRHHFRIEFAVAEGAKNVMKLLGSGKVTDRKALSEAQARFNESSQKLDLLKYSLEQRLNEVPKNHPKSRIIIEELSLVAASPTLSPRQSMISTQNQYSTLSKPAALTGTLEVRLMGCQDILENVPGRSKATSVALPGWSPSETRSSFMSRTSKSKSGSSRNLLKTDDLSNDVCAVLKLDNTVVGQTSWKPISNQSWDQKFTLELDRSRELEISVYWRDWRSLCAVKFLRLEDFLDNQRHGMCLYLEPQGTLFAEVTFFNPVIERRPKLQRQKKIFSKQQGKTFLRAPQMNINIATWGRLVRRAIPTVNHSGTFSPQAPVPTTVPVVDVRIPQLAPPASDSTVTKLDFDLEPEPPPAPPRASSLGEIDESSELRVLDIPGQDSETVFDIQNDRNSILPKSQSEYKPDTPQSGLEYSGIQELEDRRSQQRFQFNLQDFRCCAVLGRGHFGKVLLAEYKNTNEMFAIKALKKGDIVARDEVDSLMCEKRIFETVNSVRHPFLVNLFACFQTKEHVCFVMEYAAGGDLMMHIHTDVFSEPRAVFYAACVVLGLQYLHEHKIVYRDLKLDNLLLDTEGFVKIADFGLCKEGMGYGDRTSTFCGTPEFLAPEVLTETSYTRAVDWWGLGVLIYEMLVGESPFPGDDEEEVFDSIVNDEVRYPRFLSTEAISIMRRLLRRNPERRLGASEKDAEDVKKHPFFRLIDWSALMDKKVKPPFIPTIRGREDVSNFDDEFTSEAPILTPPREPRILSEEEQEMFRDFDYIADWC
Method: as §1, §2, §3
The following kinases were assayed against the substrates indicated. Aurora B was assayed against the substrate peptide […] (300 μM), ERK8 and MST-2 were both assayed against MBP (0.33 mg/ml). IKKβ was assayed against the substrate peptide […] (300 μM), JNK3 was assayed against 3 μM ATF2[19-96]. MAPKAP-K3 and PKD1 were both assayed against […] (30 μM), MARK3 was assayed against CHKtide ([…]) substrate peptide (300 μM). MNK1 and MNK2 were both assayed against eIF4E protein (0.5 mg/ml). NEK7 was assayed against […] (300 μM), PIM2 was assayed against […] (300 μM), ΔPH PKBβ-S474D was assayed against Crosstide (30 μM), PLK1 was assayed against […] (300 μM). PRK2 was assayed against Long S6 peptide, […] (30 μM), RSK2 was assayed against […] (30 μM), SRC was assayed against cdc2 peptide, […], (300 μM) and SRPK1 was assayed against peptide […] (300 μM). All enzymes were diluted in 50 mM Tris/HCl pH 7.5, 0.1 mM EGTA, 1 mg/ml BSA, 0.1% β-mercaptoethanol buffer and assayed in an incubation containing 50 mM Tris/HCl pH7.5, 0.1 mM EGTA, 0.1% β-mercaptoethanol, CAMK-1 (5-20 mU) diluted in 50 mM Tris/HCl pH 7.5, 0.1 mM EGTA, 1 mg/ml BSA, 0.1% β-mercaptoethanol is assayed against substrate peptide […] in an incubation containing 50 mM Tris/HCl pH 7.5, 0.1 mM EGTA, 0.5 mM CaCl2, 0.3 μM calmodulin, 0.1% β-mereaptoethanol, 300 μM substrate peptide, 10 mM magnesium acetate and 0.05 mM [^33P-γ-ATP] (500-1000 cpm/pmole). EF2K (5-20 mU) diluted in 50 mM Hepes pH 6.6, 0.1% β-mercaptoethanol, 1 mg/ml BSA is assayed against a substrate peptide […] in an incubation containing 50 mM Hepes pH 6.6, 0.2 mM CaCl2, 0.3 μM Calmodulin, 0.05% b-mercaptoethanol, 300 μM substrate peptide, 10 mM magnesium acetate and 0.05 mM [^33P-γ-ATP] (500-1000 cpm/pmole).

NEK2a = target: T1, NEK2a (Homo sapiens, UniProt P51955); test: NEK2a 33P kinase assay; conditions: read-out: NEK2a activity as percentage of control without inhibitor
T1 sequence (P51955 1-445): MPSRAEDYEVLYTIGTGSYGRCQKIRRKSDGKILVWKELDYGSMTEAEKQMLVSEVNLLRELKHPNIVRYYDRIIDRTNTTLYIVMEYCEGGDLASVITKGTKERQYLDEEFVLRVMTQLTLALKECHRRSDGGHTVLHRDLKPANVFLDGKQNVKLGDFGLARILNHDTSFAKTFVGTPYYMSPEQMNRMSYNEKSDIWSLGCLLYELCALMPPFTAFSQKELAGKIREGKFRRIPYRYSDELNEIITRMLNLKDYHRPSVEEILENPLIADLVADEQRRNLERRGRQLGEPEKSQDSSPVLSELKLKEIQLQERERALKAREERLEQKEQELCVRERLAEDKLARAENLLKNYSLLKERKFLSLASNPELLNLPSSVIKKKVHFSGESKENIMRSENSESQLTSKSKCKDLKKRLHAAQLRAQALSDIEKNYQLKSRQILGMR
Method: as §1
5-20 mU of NEK2a (diluted in 50 mM Tris (pH 7.5), 0.1 mM EGTA, 1 mg/ml BSA, 0.1%, β-Mercaptoethanol) is assayed against NEK2a peptide ([…]) in a final volume of 25.5 μl containing 50 mM Tris (pH 7.5), 0.1 mM EGTA, 0.01% Brij, 0.1%, β-Mercaptoethanol, 300 μM NEK2a peptide, 10 mM magnesium acetate and 0.05 mM [^33P- γATP](500-1000 cpm/pmole) and incubated for 30 mins at room temperature.

Chain of JNK/SAPK1c (P45983 whole entry): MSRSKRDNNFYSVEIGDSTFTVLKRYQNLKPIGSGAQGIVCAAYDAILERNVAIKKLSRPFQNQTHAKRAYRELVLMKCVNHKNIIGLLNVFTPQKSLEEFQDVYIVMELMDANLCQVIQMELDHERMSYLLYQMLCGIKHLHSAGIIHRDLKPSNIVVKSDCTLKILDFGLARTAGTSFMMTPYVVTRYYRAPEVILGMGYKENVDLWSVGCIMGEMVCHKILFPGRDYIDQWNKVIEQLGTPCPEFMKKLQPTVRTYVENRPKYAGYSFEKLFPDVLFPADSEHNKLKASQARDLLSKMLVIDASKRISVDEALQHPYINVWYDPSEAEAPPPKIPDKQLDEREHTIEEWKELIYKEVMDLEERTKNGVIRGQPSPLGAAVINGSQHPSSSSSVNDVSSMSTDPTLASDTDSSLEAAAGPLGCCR

In the case of `COc1ccc2c3c([nH]c2c1)C(C)=NCC3` [Harmaline], the remaining activity at 1 µM (JNK/SAPK1c) is reported as 99%, the remaining activity at 10 µM (JNK/SAPK1c) is reported as 96% and the remaining activity at 1 µM (MAPK2/ERK2; inhibitor 1 μM) is reported as 80%. For the same molecule, the remaining activity at 10 µM (MAPK2/ERK2; inhibitor 10 μM) was 89%, the remaining activity at 1 µM (PRK2; inhibitor 1 μM) was 97% and the remaining activity at 10 µM (PRK2; inhibitor 10 μM) was 83%. It also gave a remaining activity at 1 µM (NEK2a; inhibitor 1 μM) of 69% and a remaining activity at 10 µM (NEK2a; inhibitor 10 μM) of 109%.

Molecule `CC1=NCCc2c1[nH]c1cc(O)ccc21` [Harmalol] has a remaining activity at 1 µM (JNK/SAPK1c; inhibitor 1 μM) of 87%, a remaining activity at 10 µM (JNK/SAPK1c; inhibitor 10 μM) of 84% and a remaining activity at 1 µM (MAPK2/ERK2; inhibitor 1 μM) of 88%. The remaining activity at 10 µM (MAPK2/ERK2; inhibitor 10 μM) was 85%, the remaining activity at 1 µM (PRK2; inhibitor 1 μM) was 86% and the remaining activity at 10 µM (PRK2; inhibitor 10 μM) was 54%. It also gave a remaining activity at 1 µM (NEK2a; inhibitor 1 μM) of 104% and a remaining activity at 10 µM (NEK2a; inhibitor 10 μM) of 83%.

Molecule `COc1ccc2c(c1)[nH]c1c(C)nccc12` [Harmine] has a remaining activity at 1 µM (JNK/SAPK1c) of 85%, a remaining activity at 10 µM (JNK/SAPK1c) of 69% and a remaining activity at 1 µM (MAPK2/ERK2) of 98%. The remaining activity at 10 µM (MAPK2/ERK2) was 89%, the remaining activity at 1 µM (PRK2) was 82% and the remaining activity at 10 µM (PRK2) was 45%. It also gave a remaining activity at 1 µM (NEK2a) of 106% and a remaining activity at 10 µM (NEK2a) of 111%.
